Like-named read-outs stand apart in the source and are kept apart here.
Legend:
BoNT A = BoNT A (Clostridium botulinum, UniProt P0DPI0); experiment: biochemical
lethal factor (LF) = lethal factor (LF) (Bacillus anthracis, UniProt P15917); experiment: biochemical; assay type: biochemical
MMP-2 = molecular target: T1, MMP-2 (Homo sapiens, UniProt P08253); experiment: MMP-2 assay (Anaspec kit); assay type: biochemical
T1 construct: purchased Anaspec, Inc. 71151/71155
T1 sequence (P08253 110-660): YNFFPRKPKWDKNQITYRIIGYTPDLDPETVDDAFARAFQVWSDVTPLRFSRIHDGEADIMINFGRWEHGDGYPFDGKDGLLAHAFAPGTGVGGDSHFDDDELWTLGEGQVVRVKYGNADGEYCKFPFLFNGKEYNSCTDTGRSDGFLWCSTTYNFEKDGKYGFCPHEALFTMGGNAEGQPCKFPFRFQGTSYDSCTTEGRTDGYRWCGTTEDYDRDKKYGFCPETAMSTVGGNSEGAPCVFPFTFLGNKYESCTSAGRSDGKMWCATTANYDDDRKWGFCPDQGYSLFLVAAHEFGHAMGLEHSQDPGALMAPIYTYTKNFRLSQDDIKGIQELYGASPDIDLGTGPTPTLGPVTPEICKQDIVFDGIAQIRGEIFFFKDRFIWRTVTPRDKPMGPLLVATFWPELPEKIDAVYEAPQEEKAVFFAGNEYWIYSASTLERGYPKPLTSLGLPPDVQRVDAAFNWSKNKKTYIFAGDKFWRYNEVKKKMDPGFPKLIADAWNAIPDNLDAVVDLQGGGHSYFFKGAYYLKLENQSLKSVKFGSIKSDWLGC

MMP-9 = molecular target: T2, MMP-9 (Homo sapiens, UniProt P14780); experiment: MMP-9 assay (Anaspec kit); assay type: biochemical
T2 construct: purchased Anaspec, Inc. 71151/71155

RAW 264.7 cells = assay type: cell-based, Murine
physchem = settings: 23 °C, pH 7.4, aqueous with cosolvent or surfactant or cyclodextrin, kinetic from dmso stock

Chain of BoNT A (P0DPI0 whole entry, looked up): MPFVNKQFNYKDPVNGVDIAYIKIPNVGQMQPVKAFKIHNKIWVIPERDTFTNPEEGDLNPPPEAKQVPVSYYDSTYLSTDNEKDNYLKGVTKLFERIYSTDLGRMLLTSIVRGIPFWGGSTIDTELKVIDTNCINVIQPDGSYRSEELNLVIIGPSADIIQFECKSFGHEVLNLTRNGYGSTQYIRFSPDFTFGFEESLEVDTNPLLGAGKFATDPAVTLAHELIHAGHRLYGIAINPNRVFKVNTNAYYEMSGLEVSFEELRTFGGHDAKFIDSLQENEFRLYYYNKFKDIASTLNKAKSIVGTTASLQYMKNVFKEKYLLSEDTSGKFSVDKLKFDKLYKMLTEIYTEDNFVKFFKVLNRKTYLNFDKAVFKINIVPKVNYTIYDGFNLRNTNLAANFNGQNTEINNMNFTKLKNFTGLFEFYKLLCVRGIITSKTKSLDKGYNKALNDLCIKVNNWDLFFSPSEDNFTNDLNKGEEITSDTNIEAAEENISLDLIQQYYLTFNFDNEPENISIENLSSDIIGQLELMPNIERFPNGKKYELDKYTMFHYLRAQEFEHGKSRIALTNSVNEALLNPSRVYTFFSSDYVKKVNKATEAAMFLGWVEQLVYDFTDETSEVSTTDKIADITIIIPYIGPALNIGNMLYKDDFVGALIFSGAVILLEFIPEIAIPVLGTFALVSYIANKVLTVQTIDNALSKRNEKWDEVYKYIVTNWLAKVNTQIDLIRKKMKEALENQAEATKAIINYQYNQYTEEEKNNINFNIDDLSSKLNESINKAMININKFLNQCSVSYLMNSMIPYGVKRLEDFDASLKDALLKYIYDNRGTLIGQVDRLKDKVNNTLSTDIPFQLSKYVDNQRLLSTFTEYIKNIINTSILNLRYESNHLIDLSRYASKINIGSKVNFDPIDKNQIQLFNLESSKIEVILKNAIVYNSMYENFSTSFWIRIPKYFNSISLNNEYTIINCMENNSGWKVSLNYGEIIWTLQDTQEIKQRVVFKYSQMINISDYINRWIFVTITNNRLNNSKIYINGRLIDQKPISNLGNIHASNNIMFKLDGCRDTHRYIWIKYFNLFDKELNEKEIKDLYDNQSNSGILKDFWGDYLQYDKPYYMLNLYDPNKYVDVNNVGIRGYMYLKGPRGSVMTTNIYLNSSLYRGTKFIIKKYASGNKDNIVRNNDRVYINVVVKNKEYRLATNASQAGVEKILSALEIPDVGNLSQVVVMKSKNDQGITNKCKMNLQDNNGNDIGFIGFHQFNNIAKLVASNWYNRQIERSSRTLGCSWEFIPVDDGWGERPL
Chain of lethal factor (LF) (P15917 34-809 limits assumed): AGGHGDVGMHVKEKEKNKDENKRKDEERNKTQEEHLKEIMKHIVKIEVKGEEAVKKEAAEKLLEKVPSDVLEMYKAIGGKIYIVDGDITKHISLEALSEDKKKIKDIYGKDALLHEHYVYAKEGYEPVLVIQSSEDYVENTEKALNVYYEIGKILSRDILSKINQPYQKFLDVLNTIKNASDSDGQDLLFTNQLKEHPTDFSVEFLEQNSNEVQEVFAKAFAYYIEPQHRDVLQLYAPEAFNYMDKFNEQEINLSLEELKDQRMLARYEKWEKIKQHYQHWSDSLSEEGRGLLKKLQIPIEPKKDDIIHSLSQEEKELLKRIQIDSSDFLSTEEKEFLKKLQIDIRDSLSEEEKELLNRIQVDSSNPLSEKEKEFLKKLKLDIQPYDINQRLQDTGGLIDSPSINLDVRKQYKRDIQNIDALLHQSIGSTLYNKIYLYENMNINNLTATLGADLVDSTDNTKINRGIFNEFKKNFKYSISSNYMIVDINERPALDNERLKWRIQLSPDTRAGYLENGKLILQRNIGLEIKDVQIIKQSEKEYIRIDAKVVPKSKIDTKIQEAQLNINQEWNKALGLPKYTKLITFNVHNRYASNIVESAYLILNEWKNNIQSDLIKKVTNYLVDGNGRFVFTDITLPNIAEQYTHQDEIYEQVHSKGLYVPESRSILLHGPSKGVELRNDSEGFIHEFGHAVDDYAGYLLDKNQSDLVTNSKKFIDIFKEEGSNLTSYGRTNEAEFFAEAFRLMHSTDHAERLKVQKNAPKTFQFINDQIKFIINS
T2 sequence (P14780 107-707 limits assumed): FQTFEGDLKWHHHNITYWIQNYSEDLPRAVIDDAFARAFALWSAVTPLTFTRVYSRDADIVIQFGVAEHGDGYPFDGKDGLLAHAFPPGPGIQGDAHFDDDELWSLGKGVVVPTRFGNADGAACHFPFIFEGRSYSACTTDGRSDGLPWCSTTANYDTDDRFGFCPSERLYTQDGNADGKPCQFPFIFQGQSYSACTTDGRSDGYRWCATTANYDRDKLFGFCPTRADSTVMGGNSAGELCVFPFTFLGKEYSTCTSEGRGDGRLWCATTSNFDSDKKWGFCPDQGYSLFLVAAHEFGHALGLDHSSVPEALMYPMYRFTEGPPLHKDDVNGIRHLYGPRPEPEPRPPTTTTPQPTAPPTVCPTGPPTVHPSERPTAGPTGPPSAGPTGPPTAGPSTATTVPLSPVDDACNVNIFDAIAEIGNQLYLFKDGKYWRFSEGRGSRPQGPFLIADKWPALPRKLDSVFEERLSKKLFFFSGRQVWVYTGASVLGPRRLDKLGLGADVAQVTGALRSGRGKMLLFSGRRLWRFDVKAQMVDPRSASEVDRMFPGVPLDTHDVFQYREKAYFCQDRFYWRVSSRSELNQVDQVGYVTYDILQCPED

Compound | IC50 (BoNT A) | IC50 (lethal factor (LF); pH 7.4, read-out: LF IC50) | IC50 (MMP-2) | IC50 (MMP-9) | further results
O=C(O)CN1C(=O)/C(=C/c2cc(-c3ccco3)on2)SC1=S [Compound 20, (Z)-2-(5-((5-(furan-2-yl)isoxazol-3-yl)methylene)-4-oxo-2-thioxothiazolidin-3-yl)acetic acid] | > 200 µM | 17 µM | – | – | IC50 (MMP-2; read-out: MMP2 IC50): 39.4 µM
O=C(O)CN1C(=O)C(=Cc2cc(-c3ccccc3)on2)SC1=S [Compound 21, 2-(4-oxo-2-thioxo-5-((5-phenylisoxazol-3-yl)methylene)thiazolidin-3-yl)acetic acid] | > 200 µM | – | > 100 µM | 50 µM | IC50 (lethal factor (LF)): 18.7 µM
Cc1ccc(-c2cc(C=C3SC(=S)N(CC(=O)O)C3=O)no2)cc1 [Compound 22, 2-(4-oxo-2-thioxo-5-((5-p-tolylisoxazol-3-yl)methylene)thiazolidin-3-yl)acetic acid] | 130 µM | – | < 10 µM | > 100 µM | IC50 (lethal factor (LF)): 5.9 µM
COc1ccc(-c2cc(C=C3SC(=S)N(CC(=O)O)C3=O)no2)cc1 [Compound 23, 2-(5-((5-(4-methoxyphenyl)isoxazol-3-yl)methylene)-4-oxo-2-thioxothiazolidin-3-yl)acetic acid] | 194 µM | – | 6.62 µM | > 100 µM | –
O=C(O)CN1C(=O)C(=Cc2cc(-c3ccc(Cl)cc3)on2)SC1=S [Compound 24, 2-(5-((5-(4-chlorophenyl)isoxazol-3-yl)methylene)-4-oxo-2-thioxothiazolidin-3-yl)acetic acid] | 82.7 µM | – | 19.2 µM | > 100 µM | –
O=C(O)CN1C(=O)C(=Cc2cc(-c3ccc(F)cc3)on2)SC1=S [Compound 25, 2-(5-((5-(4-fluorophenyl)isoxazol-3-yl)methylene)-4-oxo-2-thioxothiazolidin-3-yl)acetic acid] | > 200 µM | – | 10 µM | > 100 µM | IC50 (lethal factor (LF)): 12.4 µM
O=C(O)CN1C(=O)C(=Cc2cc(-c3ccc(Br)cc3)on2)SC1=S [Compound 26, 2-(5-((5-(4-bromophenyl)isoxazol-3-yl)methylene)-4-oxo-2-thioxothiazolidin-3-yl)acetic acid] | > 200 µM | – | > 100 µM | 27.4 µM | IC50 (lethal factor (LF)): 17.3 µM
O=C(O)CN1C(=O)/C(=C/c2cn(-c3ccc(F)cc3F)nc2-c2cccnc2)SC1=S [Compound 32, (Z)-2-(5-((1-(2,4-difluorophenyl)-3-(pyridin-3-yl)-1H-pyrazol-4-yl)methylene)-4-oxo-2-thioxothiazolidin-3-yl)acetic acid] | 71.5 µM | 2.99 µM | 13.7 µM | – | –
O=C(O)CN1C(=O)/C(=C/c2cn(-c3ccc(F)cc3)nc2-c2ccc(F)cc2)SC1=S [Compound 33, (Z)-2-(5-((1,3-bis(4-fluorophenyl)-1H-pyrazol-4-yl)methylene)-4-oxo-2-thioxothiazolidin-3-yl)acetic acid] | 52.6 µM | 4.22 µM | 39.4 µM | – | –
O=C(O)CN1C(=O)/C(=C/c2cn(-c3ccc(Br)cc3)nc2-c2ccc(Br)cc2)SC1=S [Compound 35, (Z)-2-(5-((1,3-bis(4-bromophenyl)-1H-pyrazol-4-yl)methylene)-4-oxo-2-thioxothiazolidin-3-yl)acetic acid] | 5.45 µM | 3.35 µM | – | – | inhibition of MMP-2 (in words) (MMP-2): did not inhibit; inhibition of MMP-9 (in words) (MMP-9): did not inhibit
O=C1/C(=C/c2cn(-c3ccccc3)nc2-c2ccc(OCc3ccc(Cl)cc3)cc2)SC(=S)N1CCS(=O)(=O)O [Compound 38, (Z)-2-(5-((3-(4-(4-chlorobenzyloxy)phenyl)-1-phenyl-1H-pyrazol-4-yl)methylene)-4-oxo-2-thioxothiazolidin-3-yl)ethanesulfonic acid] | > 200 µM | 2.45 µM | 10.1 µM | – | protection of macrophages from LF/PA-induced cell death (RAW 264.7 cells): protect macrophages from LF/PA-induced cell death
CC1Cc2cc(-c3nn(-c4ccccc4)cc3/C=C3\SC(=S)N(CCS(=O)(=O)O)C3=O)ccc2O1 (centres unmarked) [Compound 39, (Z)-2-(5-((3-(2-methyl-2,3-dihydrobenzofuran-5-yl)-1-phenyl-1H-pyrazol-4-yl)methylene)-4-oxo-2-thioxothiazolidin-3-yl)ethanesulfonic acid] | > 200 µM | 2.29 µM | – | – | protection of macrophages from LF/PA-induced cell death (RAW 264.7 cells): protect macrophages from LF/PA-induced cell death
COc1ccc(-c2nn(-c3ccccc3)cc2/C=C2\SC(=S)N(CCS(=O)(=O)O)C2=O)cc1 [Compound 40, (Z)-2-(5-((3-(4-methoxyphenyl)-1-phenyl-1H-pyrazol-4-yl)methylene)-4-oxo-2-thioxothiazolidin-3-yl)ethanesulfonic acid] | > 200 µM | 2.04 µM | 34.5 µM | – | protection of macrophages from LF/PA-induced cell death (RAW 264.7 cells): protect macrophages from LF/PA-induced cell death
O=C1/C(=C/c2cn(-c3ccccc3)nc2-c2ccc(Cl)cc2)SC(=S)N1CCS(=O)(=O)O [Compound 41, (Z)-2-(5-((3-(4-chlorophenyl)-1-phenyl-1H-pyrazol-4-yl)methylene)-4-oxo-2-thioxothiazolidin-3-yl)ethanesulfonic acid] | > 200 µM | 3.66 µM | 26.9 µM | – | –
O=C(O)CN1C(=O)/C(=C/c2sc(Br)c3c2OCCO3)SC1=S [Compound 47, (Z)-2-(5-((7-bromo-2,3-dihydrothieno[3,4-b][1,4]dioxin-5-yl)methylene)4-oxo-2-thioxothiazolidin-3-yl)acetic acid] | > 200 µM | 11.4 µM | – | – | IC50 (MMP-2; read-out: MMP2 IC50): 50.6 µM
O=C(O)CN1C(=O)/C(=C/c2ccc(N3CCOCC3)s2)SC1=S [Compound 48, (Z)-2-(5-((5-morpholinothiophen-2-yl)methylene)-4-oxo-2-thioxothiazolidin-3-yl)acetic acid] | 112 µM | 32.5 µM | – | – | IC50 (MMP-2; read-out: MMP2 IC50): 47.1 µM; IC50 (MMP-9; read-out: MMP9 IC50): 64.9 µM
Cc1ccc2cc(/C=C3\SC(=S)N(CC(=O)O)C3=O)ccc2n1 [Compound 54, (Z)-2-(5-((2-methylquinolin-6-yl)methylene)-4-oxo-2-thioxothiazolidin-3-yl)acetic acid] | > 200 µM | 5.25 µM | – | – | IC50 (MMP-2; read-out: MMP2 IC50): 18 µM
O=C(O)CN1C(=O)/C(=C/c2csc3ccc(Br)cc23)SC1=S [Compound 58, (Z)-2-(5-((5-bromobenzo[b]thiophen-3-yl)methylene)-4-oxo-2-thioxothiazolidin-3-yl)acetic acid] | 74.3 µM | 10.4 µM | – | – | IC50 (MMP-2; read-out: MMP2 IC50): 46.9 µM; IC50 (MMP-9; read-out: MMP9 IC50): 64.9 µM
O=C(O)CN1C(=O)/C(=C2/C(=O)N(CC(=O)Nc3cccc(Cl)c3)c3ccccc32)SC1=S [Compound 62, (Z)-2-(5-(1-(2-(3-chlorophenylamino)-2-oxoethyl)-2-oxoindolin-3-ylidene)-4-oxo-2-thioxothiazolidin-3-yl)acetic acid] | > 200 µM | 4.4 µM | > 25 µM | > 25 µM | –
COCCc1ccc(OCC(O)CNC(C)C)cc1 (centres unmarked) [Metoprolol] | – | – | – | – | Pampa (d) permeability class: High
CC(C)NCC(O)COc1cccc2ccccc12 (centres unmarked) [Propranolol] | – | – | – | – | Pampa (d) permeability class: High
CC(=O)Oc1ccccc1C(=O)O [acetylsalicylic acid, reference compound] | – | – | – | – | solubility (physchem): > 100 µg/mL
Lucifer Yellow | – | – | – | – | Pampa (d) permeability class: Low

From patent US7947717B2 (priority 2008, dated 2011)
